Reference: the NIST ThermoML archive (doi:10.1021/acs.jced.5b00971)

Conditions: Liquid; for viscosity: Capillary tube (Ostwald / Ubbelohde) method; for mass density: Pycnometric method; for thermal conductivity: Hot wire method

CCCCCCCCCCCC(=O)O [dodecanoic acid]
101.33 kPa
Conditions	mass density [kg/m3]	thermal conductivity [W/m/K]	viscosity [mPa·s]
322.1 K	872.4	–	7.21
324.6 K	–	0.156	–
332.1 K	864.6	–	5.62
348.7 K	–	0.151	–
352.1 K	849.9	–	3.7
368.2 K	838.9	–	2.69
373.8 K	–	0.145	–
388.4 K	824.1	–	1.97
398.4 K	–	0.14	–
408.1 K	809.3	–	1.47
422 K	–	0.134	–
428.1 K	794.4	–	1.11
442.2 K	783.5	–	0.95
447.5 K	–	0.129	–
457.2 K	770.2	–	0.8
467.2 K	762	–	0.72
472.7 K	–	0.123	–

CCCCCCCCCC(=O)O [decanoic acid]
101.33 kPa
Conditions	mass density [kg/m3]	thermal conductivity [W/m/K]	viscosity [mPa·s]
308 K	–	0.154	–
322.1 K	878	–	4.75
327.4 K	–	0.15	–
332.1 K	871	–	3.8
348.8 K	–	0.146	–
352.1 K	855.3	–	2.55
368.3 K	843.1	–	1.94
373.9 K	–	0.14	–
388.3 K	827.3	–	1.45
398.3 K	–	0.135	–
408.2 K	812.2	–	1.1
421.9 K	–	0.13	–
427.2 K	797.2	–	0.88
428.2 K	796.4	–	0.87
442.2 K	784.9	–	0.75
447.3 K	–	0.125	–
457.2 K	772.9	–	0.64
472.2 K	761.9	–	0.56
473.4 K	–	0.119	–

CCCCCC(=O)O [hexanoic acid]
101.33 kPa
Conditions	mass density [kg/m3]	thermal conductivity [W/m/K]	viscosity [mPa·s]
294.5 K	926	–	–
294.6 K	–	–	3.07
296.9 K	–	0.143	–
312.1 K	910.5	–	2.15
325.7 K	–	0.138	–
332.1 K	893.1	–	1.52
347.4 K	–	0.134	–
352.1 K	875.8	–	1.14
368.1 K	861.7	–	0.94
374.7 K	–	0.128	–
388.4 K	843.5	–	0.73
398.1 K	–	0.124	–
408.3 K	825.3	–	0.6
422.3 K	–	0.12	–
428.3 K	806.5	–	0.49
445.6 K	–	0.116	–
471.2 K	–	0.113	–

CCCCCCCCCCCCCC(=O)O [tetradecanoic acid]
101.33 kPa
Conditions	mass density [kg/m3]	thermal conductivity [W/m/K]	viscosity [mPa·s]
332.1 K	861.3	–	7.77
334.4 K	–	0.158	–
349 K	–	0.155	–
352.1 K	846.9	–	4.88
368.2 K	835.6	–	3.53
374.1 K	–	0.149	–
388.2 K	821.4	–	2.48
397.7 K	–	0.144	–
408.2 K	806.7	–	1.79
422.3 K	–	0.139	–
427.9 K	791.7	–	1.35
442.2 K	–	–	1.13
443.2 K	780.9	–	–
447.3 K	–	0.133	–
457.2 K	–	–	0.95
458.2 K	769.3	–	–
471.9 K	–	0.127	–
472.2 K	–	–	0.81
473.2 K	758	–	–

CCCCCCCC(=O)O [octanoic acid]
101.33 kPa
Conditions	mass density [kg/m3]	thermal conductivity [W/m/K]	viscosity [mPa·s]
290.3 K	910.3	–	–
293.3 K	–	–	5.86
297.2 K	–	0.147	–
308 K	898.2	–	3.98
322.3 K	–	0.142	–
323.1 K	885.9	–	2.88
338.1 K	873.8	–	2.17
352.8 K	–	0.136	–
353.1 K	861.8	–	1.69
367.8 K	849.7	–	1.36
383.1 K	837.2	–	1.11
387.6 K	–	0.13	–
398.1 K	824.6	–	0.92
411.3 K	–	0.124	–
412.9 K	812.3	–	0.78
427.7 K	799.2	–	0.67
442 K	–	0.118	–
471.7 K	–	0.112	–

CCCCC(=O)O [pentanoic acid]
Conditions	mass density [kg/m3]	thermal conductivity [W/m/K]	viscosity [mPa·s]
293.4 K	939.7	–	2.19
296.1 K	–	0.141	–
312.1 K	922.3	–	1.56
324.1 K	–	0.136	–
332.1 K	904.1	–	1.17
348.6 K	–	0.131	–
352.2 K	885.4	–	0.89
368.1 K	870.6	–	0.75
374 K	–	0.126	–
388.4 K	851	–	0.6
398 K	–	0.122	–
408.3 K	831.9	–	0.5
422.4 K	–	0.118	–
428.2 K	812.1	–	0.41
446.4 K	–	0.115	–
471.3 K	–	0.111	–

CCCCCCC(=O)O [heptanoic acid]
101.33 kPa
Conditions	mass density [kg/m3]	thermal conductivity [W/m/K]	viscosity [mPa·s]
290.3 K	920.6	–	4.63
296 K	–	0.144	–
308 K	905.7	–	3.06
314.4 K	–	0.14	–
323.1 K	893	–	2.3
332.4 K	–	0.137	–
338.1 K	880.4	–	1.74
352.6 K	–	0.133	–
353.1 K	867.8	–	1.39
367.1 K	855.4	–	1.13
372.2 K	–	0.13	–
382 K	–	0.127	–
383.2 K	842.3	–	0.94
391.9 K	–	0.124	–
397.9 K	829.4	–	0.79
412.4 K	–	0.121	–
412.9 K	816.6	–	0.68
427.7 K	803.4	–	0.59
441.7 K	–	0.116	–
471.4 K	–	0.11	–

CCCCCCCCC(=O)O [nonanoic acid]
101.33 kPa
Conditions	mass density [kg/m3]	thermal conductivity [W/m/K]	viscosity [mPa·s]
290.3 K	906	–	–
292.3 K	–	–	8.2
296.3 K	–	0.15	–
308 K	893.8	–	5.25
322.6 K	–	0.144	–
323.1 K	881.9	–	3.66
338.1 K	870.1	–	2.7
352.9 K	–	0.139	–
353.1 K	858.4	–	2.07
368 K	846.7	–	1.63
381.3 K	–	0.133	–
383.1 K	834.1	–	–
383.3 K	–	–	1.31
398.1 K	822.3	–	1.08
412.2 K	–	0.126	–
413 K	810.3	–	0.9
427.9 K	798	–	0.76
441.4 K	–	0.121	–
471.6 K	–	0.115	–
